The test system of this assay is mice. The assay is described as follows: Neuropharmacological assay (SmartCube), behavioral signature of compound-treated mice. In kind it is in vivo. The following applies: i.p. 15 min before behavioral test, most efficacious dose(s) of 3 doses. An outline of the steps: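 Read-out is an automated video-based behavioral signature, scored as per-class probabilities (e.g., anxiolytic, antidepressant) against reference compounds. Dosing was i.p. at three doses, 15 min pre-test, in NMP, polyethylene glycol and propylene glycol. Values shown are from the most efficacious dose(s).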

Take `FC1(F)CO[C@H]([C@@H]2CCCN2)c2ccccc21` [Compound I-139, (S)-2-((S)-4,4-difluoroisochroman-1-yl)pyrrolidine]: the “AD: ADHD (probability that behavioral signature matches class)” value (from here on “AD: ADHD”) was “+ (LOQ ≤ + <5%)”, the “AG: analgesic (probability that behavioral signature matches class)” value (“AG: analgesic” below) is given as “+ (LOQ ≤ + <5%)”, the “AX: anxiolytic (probability that behavioral signature matches class)” value (“AX: anxiolytic” below) is reported as “++ (5% ≤ ++ <25%)” and the “CE: cognitive enhancer (probability that behavioral signature matches class)” value (“CE: cognitive enhancer” for short) is given as “++ (5% ≤ ++ <25%)”. The “DP: anti-depressant (probability that behavioral signature matches class)” value (from here on “DP: anti-depressant”) was “++ (5% ≤ ++ <25%)”, the “HA: hallucinogen (probability that behavioral signature matches class)” value (shortened to “HA: hallucinogen”) is recorded as “+ (LOQ ≤ + <5%)”, the “MS: mood stabilizer (probability that behavioral signature matches class)” value (“MS: mood stabilizer” for short) is “+ (LOQ ≤ + <5%)” and the “PS: anti-psychotic (probability that behavioral signature matches class)” value (shortened to “PS: anti-psychotic”) is given as “+++ (25% ≤ +++ <50%)”. In addition, the “SD: sedative hypnotic (probability that behavioral signature matches class)” value (shortened to “SD: sedative hypnotic”) was “+ (LOQ ≤ + <5%)”, the “UN: uncharacterized CNS activity (probability that behavioral signature matches class)” value (from here on “UN: uncharacterized CNS activity”) is on record as “+ (LOQ ≤ + <5%)” and the “XG: anxiogenic (probability that behavioral signature matches class)” value (“XG: anxiogenic” below) is “+ (LOQ ≤ + <5%)”.
As for `FC1(F)CO[C@@H]([C@@H]2CCCN2)c2ccccc21` [Compound I-140, (S)-2-((R)-4,4-difluoroisochroman-1-yl)pyrrolidine], the “AD: ADHD” value is listed as “+ (LOQ ≤ + <5%)”, the “AG: analgesic” value was “++ (5% ≤ ++ <25%)”, the “AX: anxiolytic” value was “++ (5% ≤ ++ <25%)” and the “CE: cognitive enhancer” value is given as “+++ (25% ≤ +++ <50%)”. In addition, the “DP: anti-depressant” value is on record as “++ (5% ≤ ++ <25%)”, the “HA: hallucinogen” value is on record as “+ (LOQ ≤ + <5%)”, the “MS: mood stabilizer” value is reported as “++ (5% ≤ ++ <25%)” and the “PS: anti-psychotic” value is given as “++ (5% ≤ ++ <25%)”. In addition, the “SD: sedative hypnotic” value is “+++ (25% ≤ +++ <50%)”, the “UN: uncharacterized CNS activity” value is on record as “++ (5% ≤ ++ <25%)” and the “XG: anxiogenic” value is recorded as “+ (LOQ ≤ + <5%)”.
For the compound `c1cc2c(c3c1CO[C@H]3[C@@H]1CCCN1)OCO2` [Compound I-141, (S)-2-((R)-6,8-dihydro-[1,3]dioxolo[4,5-e]isobenzofuran-8-yl)-pyrrolidine], the “AD: ADHD” value is on record as “++ (5% ≤ ++ <25%)”, the “AG: analgesic” value is recorded as “++ (5% ≤ ++ <25%)”, the “AX: anxiolytic” value is reported as “++ (5% ≤ ++ <25%)” and the “CE: cognitive enhancer” value is on record as “+++ (25% ≤ +++ <50%)”. For the same compound, the “DP: anti-depressant” value was “++ (5% ≤ ++ <25%)”, the “HA: hallucinogen” value is “++ (5% ≤ ++ <25%)”, the “MS: mood stabilizer” value is “+ (LOQ ≤ + <5%)” and the “PS: anti-psychotic” value was “++ (5% ≤ ++ <25%)”. Besides, the “SD: sedative hypnotic” value is “+ (LOQ ≤ + <5%)”, the “UN: uncharacterized CNS activity” value is “++++ (50% ≤ ++++)” and the “XG: anxiogenic” value is on record as “+ (LOQ ≤ + <5%)”.
As to `c1cc2c(c3c1CO[C@@H]3[C@@H]1CCCN1)OCO2` [Compound I-142, (S)-2-((S)-6,8-dihydro-[1,3]dioxolo[4,5-e]isobenzofuran-8-yl)-pyrrolidine], the “AD: ADHD” value was “+ (LOQ ≤ + <5%)”, the “AG: analgesic” value is “++ (5% ≤ ++ <25%)”, the “AX: anxiolytic” value was “+++ (25% ≤ +++ <50%)” and the “CE: cognitive enhancer” value is “++ (5% ≤ ++ <25%)”. Besides, the “DP: anti-depressant” value is “++ (5% ≤ ++ <25%)”, the “HA: hallucinogen” value is given as “+ (LOQ ≤ + <5%)”, the “MS: mood stabilizer” value is “+ (LOQ ≤ + <5%)” and the “PS: anti-psychotic” value is given as “++ (5% ≤ ++ <25%)”. Also, the “SD: sedative hypnotic” value is “+ (LOQ ≤ + <5%)”, the “UN: uncharacterized CNS activity” value is reported as “++ (5% ≤ ++ <25%)” and the “XG: anxiogenic” value was “+ (LOQ ≤ + <5%)”.
Turning to `c1cc2c(c3c1CCO[C@@H]3[C@@H]1CCN1)OCO2` [Compound I-143, (S)-2-((S)-7,9-dihydro-6H-[1,3]dioxolo[4,5-h]isochromen-9-yl)azetidine], the “AD: ADHD” value was “+ (LOQ ≤ + <5%)”, the “AG: analgesic” value was “++ (5% ≤ ++ <25%)”, the “AX: anxiolytic” value is “++ (5% ≤ ++ <25%)” and the “CE: cognitive enhancer” value is reported as “+ (LOQ ≤ + <5%)”. Also, the “DP: anti-depressant” value is given as “++ (5% ≤ ++ <25%)”, the “HA: hallucinogen” value was “+ (LOQ ≤ + <5%)”, the “MS: mood stabilizer” value is “+ (LOQ ≤ + <5%)” and the “PS: anti-psychotic” value was “++ (5% ≤ ++ <25%)”. In addition, the “SD: sedative hypnotic” value was “+ (LOQ ≤ + <5%)”, the “UN: uncharacterized CNS activity” value is listed as “+++ (25% ≤ +++ <50%)” and the “XG: anxiogenic” value is on record as “+ (LOQ ≤ + <5%)”.
With `c1cc2c(c3c1CCO[C@H]3[C@@H]1CCN1)OCO2` [Compound I-144, (S)-2-((R)-7,9-dihydro-6H-[1,3]dioxolo[4,5-h]isochromen-9-yl)azetidine], the “AD: ADHD” value is on record as “++ (5% ≤ ++ <25%)”, the “AG: analgesic” value is on record as “++ (5% ≤ ++ <25%)”, the “AX: anxiolytic” value is “++ (5% ≤ ++ <25%)” and the “CE: cognitive enhancer” value is “++ (5% ≤ ++ <25%)”. Moreover, the “DP: anti-depressant” value is listed as “+++ (25% ≤ +++ <50%)”, the “HA: hallucinogen” value is on record as “+ (LOQ ≤ + <5%)”, the “MS: mood stabilizer” value is “++ (5% ≤ ++ <25%)” and the “PS: anti-psychotic” value is listed as “+++ (25% ≤ +++ <50%)”. Besides, the “SD: sedative hypnotic” value is listed as “+ (LOQ ≤ + <5%)”, the “UN: uncharacterized CNS activity” value is on record as “+++ (25% ≤ +++ <50%)” and the “XG: anxiogenic” value is reported as “+ (LOQ ≤ + <5%)”.

The record behind these values is patent US10336732B2, “1-heterocyclyl isochromanyl compounds and analogs for treating CNS disorders” (Sunovion Pharmaceuticals Inc., priority 2015, dated 2019).
